Laboratory results published in patent publication US9333208B2, “HCN inhibitors affecting ganglion cell function and visual function” (Allergan, Inc., priority 2013, dated 2016).

Tests used:
HCN channel current (Ih) = HCN channel current (Ih) measurement, voltage clamp of retinal ganglion cells; format: cell-based, Brown Norway rats; details: different concentrations; clamped at -60 mV, stepped to -80, -100 and -120 mV for 1 second; FIG. 11
retinal ganglion cells = assay: Retinal ganglion cell input resistance measurement, voltage clamp; format: cell-based, Brown Norway rats; details: different concentrations; clamped at -60 mV, stepped to -55 mV; FIG. 12

COc1cc2c(cc1OC)CC(=O)N(CCCN(C)C[C@H]1Cc3cc(OC)c(OC)cc31)CC2 [Ivabradine, 3-[3-({[(7S)-3,4-dimethoxybicyclo[4.2.0]octa-1,3,5-trien-7-yl]methyl}(methyl)amino)propyl]-7,8-dimethoxy-2,3,4,5-tetrahydro-1H-3-benzazepin-2-one]
retinal ganglion cell HCN (Ih) mediated current (HCN channel current (Ih)): statistically significant decrease
retinal ganglion cell input resistance (retinal ganglion cells): increased with every concentration of Ivabradine in a linear manner
